Measurements from ChEMBL document CHEMBL3797190, “Development of 3,5-Dinitrobenzylsulfanyl-1,3,4-oxadiazoles and Thiadiazoles as Selective Antitubercular Agents Active Against Replicating and Nonreplicating Mycobacterium tuberculosis” (J Med Chem, 2016).
Calls of active or inactive are those of the source. No cut-off for these calls is given here.

Legend:
[1] = tested on: Mycobacterium tuberculosis; experiment: Antimycobacterial activity against Mycobacterium tuberculosis H37Ra assessed as growth inhibition at 0.2 ug/ml preincubated for 24 hrs followed by radiolabeling with [14C]-acetate for 24 hrs; type: functional; details: read-out: GI
[2] = tested on: Mycobacterium tuberculosis H37Ra; experiment: Inhibition of DprE1 in Mycobacterium tuberculosis H37Ra assessed as accumulation of trehalose dimycolate at 0.2 ug/ml preincubated for 24 hrs followed by radiolabeling with [14C]-acetate for 24 hrs by TLC/autoradiographic method
[3] = Cytotoxicity against human HuH7 cells assessed as cell viability after 24 hrs by MTS assay; type: cell-based; details: Huh-7, 24 h
HeLa [4] = experiment: Cytotoxicity against human HeLa cells assessed as cell viability after 48 hrs by MTS assay; type: cell-based
HeLa [5] = experiment: Cytotoxicity against human HeLa cells assessed as cell viability after 24 hrs by MTS assay; type: cell-based
[6] = Cytotoxicity against human HuH7 cells assessed as cell viability at 20 uM after 24 hrs by MTS assay; type: cell-based, Huh-7; details: read-out: Activity
[7] = Cytotoxicity against human HeLa cells assessed as cell viability at 20 uM after 24 hrs by MTS assay; type: cell-based; details: read-out: Activity
[8] = Cytotoxicity against human HeLa cells assessed as cell viability at 20 uM after 48 hrs by MTS assay; type: cell-based; details: read-out: Activity
[9] = tested on: Mycobacterium tuberculosis; experiment: Inhibition of proteosynthesis in Mycobacterium tuberculosis H37Ra assessed as reduction of [14C]-methionine incorporation at 0.05 ug/ml preincubated for 1 hr followed by radiolabeling with [14C]-methionine for 24 hrs by scintillation spectrometry; type: functional
[10] = Cytotoxicity against human HuH7 cells assessed as cell viability at 20 uM after 48 hrs by MTS assay; type: cell-based, Huh-7; details: read-out: Activity
[11] = Cytotoxicity against primary human hepatocytes assessed as cell viability at 20 uM after 48 hrs by MTS assay; type: cell-based, Hepatocyte; details: read-out: Activity
[12] = Cytotoxicity against MDCK2-MDR1 cells assessed as cell viability at 20 uM after 48 hrs by MTS assay; type: ADME, cell-based, Canis lupus familiaris, MDCK-II; details: dog, read-out: Activity
[13] = tested on: Mycobacterium tuberculosis; experiment: Antimycobacterial activity against Mycobacterium tuberculosis H37Ra assessed as growth inhibition at 0.05 ug/ml preincubated for 1 hr followed by radiolabeling with [14C]-uracil, [14C]-methionine for 24 hrs; type: functional, organism-based
[14] = Cytotoxicity against MDCK2-MDR1 cells assessed as cell viability at 20 uM after 24 hrs by MTS assay; type: ADME, cell-based, Canis lupus familiaris, MDCK-II; details: dog, read-out: Activity
[15] = tested on: Mycobacterium tuberculosis; experiment: Inhibition of RNA biosynthesis in Mycobacterium tuberculosis H37Ra assessed as reduction of [14C]-uracil incorporation at 0.05 ug/ml preincubated for 1 hr followed by radiolabeling with [14C]-uracil for 24 hrs by scintillation spectrometry; type: functional
[16] = Cytotoxicity against MDCK2-MDR1 cells assessed as cell viability after 24 hrs by MTS assay; type: ADME, cell-based; details: Canis lupus familiaris, MDCK-II
Hepatocyte = experiment: Cytotoxicity against primary human hepatocytes assessed as cell viability after 48 hrs by MTS assay; type: cell-based
[17] = Cytotoxicity against human HuH7 cells assessed as cell viability after 48 hrs by MTS assay; type: cell-based; details: Huh-7, 48 h
[18] = Cytotoxicity against MDCK2-MDR1 cells assessed as cell viability after 48 hrs by MTS assay; type: ADME, cell-based; details: Canis lupus familiaris, MDCK-II

Compound | inhibition of growth at 0.2 µg/mL [1] [%] | inhibition [2] | IC50 [3] [µM] | IC50 (HeLa [4]) [µM] | IC50 (HeLa [5]) [µM] | viability at 24 h, 20 µM [6] [%] | viability at 24 h, 20 µM [7] [%] | viability at 48 h, 20 µM [8] [%] | inhibition at 0.05 µg/mL [9] [%] | viability at 48 h, 20 µM [10] [%] | viability at 48 h, 20 µM [11] [%] | viability at 48 h, 20 µM [12] [%] | growth inhibition (GI) [13] | viability at 24 h, 20 µM [14] [%] | inhibition at 0.05 µg/mL [15] [%] | IC50 [16] [µM] | IC50 (Hepatocyte) [µM] | IC50 [17] [µM] | IC50 [18] [µM]
C[C@H]1COC2(CCN(c3nc(=O)c4cc(C(F)(F)F)cc([N+](=O)[O-])c4s3)CC2)O1 [BTZ-043] | 38 | Active | – | – | – | – | – | – | – | – | – | – | – | – | – | – | – | – | –
CO[C@H]1/C=C/O[C@@]2(C)Oc3c(C)c(O)c4c(O)c(c(/C=N/N5CCN(C)CC5)c(O)c4c3C2=O)NC(=O)/C(C)=C\C=C\[C@H](C)[C@H](O)[C@@H](C)[C@@H](O)[C@@H](C)[C@H](OC(C)=O)[C@@H]1C [RIFAMPIN] | – | – | > 20 | > 20 | > 20 | 98.3 | 102 | 100 | 61 | 52.7 | 123 | 106 | Active | 103 | 68 | > 20 | > 20 | > 20 | > 20
